# In patent US20130029928A1 (priority 2010, published 2013):
# Like-named read-outs stand apart in the source and are kept apart here.
# Assay: Phase I study CXR1002-001: plasma pharmacokinetics (LC-MS/MS)
# Format: in vivo, human
# Conditions: human, plasma, oral, person, plasma, read-out: Concentration; for concentration at 24 h: 24 hr (Day 2); for concentration at 168 h: 168 hr (Day 8); for concentration at 192 h: 192 hr (Day 9); for concentration at 336 h: 336 hr (Day 15); for concentration at 360 h: 360 hr (Day 16); for concentration at 504 h: 504 hr (Day 22); for concentration at 528 h: 528 hr (Day 23); for concentration at 672 h: 672 hr (Day 29); for concentration at 696 h: 696 hr (Day 30); for concentration at 840 h: 840 hr (Day 36); for concentration at 864 h: 864 hr (Day 37)
# Source text: PK samples, PD (fasting) samples, blood glucose, and blood triglyceride samples, were taken over a 6-week period.
# Dose limiting toxicity (DLT) will be based on the toxicity assessments over the first 3-week period of the repeat dosing schedule. PK samples (single blood sample) were taken on the following basis: • Every 6 weeks during the repeat dosing phase • If dosing is interrupted or stopped, samples will be taken at intervals according to patient convenience • PK sampling for safety evaluation may take place at any time, as clinically indicated
# Plasma samples were collected after the single 50 mg dose at the following timepoints: Pre-dose, and then 0.25, 0.5, 0.75, 1, 1.5, 2, 3, 4, 6, 24, 48, and 72 hours after administration and then once weekly at weeks 2, 3, 4, 5, and 6 (days 8, 15, 22, 29, and 36). For patients treated with the weekly repeat dose, plasma samples were collected at the following timepoints: Pre-dose and then 2, 3, 4 and 24 hours after administration for a total of 6 weeks. Thereafter a single sample was collected every 6 weeks for monitoring of exposure during long term treatment. Plasma samples were processed at site and stored at −80° C. prior to batch shipment to the analytical laboratory.
smiles,measurement,setting,value
O=C(O)C(F)(F)C(F)(F)C(F)(F)C(F)(F)C(F)(F)C(F)(F)C(F)(F)F [CXR1002],concentration at 24 h,"600 mg, Patient 024, 600 mg",258 µM
same,concentration at 168 h,"600 mg, Patient 024, 600 mg",212 µM
same,concentration at 170 h,"600 mg, Patient 024, 600 mg",436 µM
same,concentration at 171 h,"600 mg, Patient 024, 600 mg",441 µM
same,concentration at 172 h,"600 mg, Patient 024, 600 mg",439 µM
same,concentration at 192 h,"600 mg, Patient 024, 600 mg",418 µM
same,concentration at 336 h,"600 mg, Patient 024, 600 mg",488 µM
same,concentration at 338 h,"600 mg, Patient 024, 600 mg",578 µM
same,concentration at 339 h,"600 mg, Patient 024, 600 mg",533 µM
same,concentration at 340 h,"600 mg, Patient 024, 600 mg",628 µM
same,concentration at 360 h,"600 mg, Patient 024, 600 mg",647 µM
same,concentration at 504 h,"600 mg, Patient 024, 600 mg",691 µM
same,concentration at 506 h,"600 mg, Patient 024, 600 mg",642 µM
same,concentration at 507 h,"600 mg, Patient 024, 600 mg",706 µM
same,concentration at 508 h,"600 mg, Patient 024, 600 mg",630 µM
same,concentration at 528 h,"600 mg, Patient 024, 600 mg",859 µM
same,concentration at 672 h,"600 mg, Patient 024, 600 mg",788 µM
same,concentration at 674 h,"600 mg, Patient 024, 600 mg",694 µM
same,concentration at 675 h,"600 mg, Patient 024, 600 mg",779 µM
same,concentration at 676 h,"600 mg, Patient 024, 600 mg",780 µM
same,concentration at 696 h,"600 mg, Patient 024, 600 mg",811 µM
same,concentration at 840 h,"600 mg, Patient 024, 600 mg",814 µM
same,concentration at 842 h,"600 mg, Patient 024, 600 mg",898 µM
same,concentration at 843 h,"600 mg, Patient 024, 600 mg",904 µM
same,concentration at 844 h,"600 mg, Patient 024, 600 mg",908 µM
same,concentration at 864 h,"600 mg, Patient 024, 600 mg",966 µM
same,concentration at 2 h,"750 mg, Patient 026, 750 mg",95.8 µM
same,concentration at 3 h,"750 mg, Patient 026, 750 mg, 3 hr",125 µM
same,concentration at 4 h,"750 mg, Patient 026, 750 mg",149 µM
same,concentration at 24 h,"750 mg, Patient 026, 750 mg",200 µM
same,concentration at 168 h,"750 mg, Patient 026, 750 mg",186 µM
same,concentration at 170 h,"750 mg, Patient 026, 750 mg",270 µM
same,concentration at 171 h,"750 mg, Patient 026, 750 mg",301 µM
same,concentration at 172 h,"750 mg, Patient 026, 750 mg",339 µM
same,concentration at 192 h,"750 mg, Patient 026, 750 mg",398 µM
same,concentration at 336 h,"750 mg, Patient 026, 750 mg",352 µM
same,concentration at 338 h,"750 mg, Patient 026, 750 mg",399 µM
same,concentration at 339 h,"750 mg, Patient 026, 750 mg",506 µM
same,concentration at 340 h,"750 mg, Patient 026, 750 mg",492 µM
same,concentration at 360 h,"750 mg, Patient 026, 750 mg",625 µM
same,concentration at 504 h,"750 mg, Patient 026, 750 mg",479 µM
same,concentration at 506 h,"750 mg, Patient 026, 750 mg",625 µM
same,concentration at 507 h,"750 mg, Patient 026, 750 mg",546 µM
same,concentration at 508 h,"750 mg, Patient 026, 750 mg",582 µM
same,concentration at 528 h,"750 mg, Patient 026, 750 mg",608 µM
same,concentration at 672 h,"750 mg, Patient 026, 750 mg",594 µM
same,concentration at 674 h,"750 mg, Patient 026, 750 mg",606 µM
same,concentration at 675 h,"750 mg, Patient 026, 750 mg",655 µM
same,concentration at 676 h,"750 mg, Patient 026, 750 mg",698 µM
same,concentration at 696 h,"750 mg, Patient 026, 750 mg",732 µM
same,concentration at 840 h,"750 mg, Patient 026, 750 mg",728 µM
same,concentration at 842 h,"750 mg, Patient 026, 750 mg",824 µM
same,concentration at 843 h,"750 mg, Patient 026, 750 mg",776 µM
same,concentration at 844 h,"750 mg, Patient 026, 750 mg",822 µM
same,concentration at 864 h,"750 mg, Patient 026, 750 mg",812 µM
same,concentration at 2 h,"750 mg, Patient 027, 750 mg",110 µM
same,concentration at 4 h,"750 mg, Patient 027, 750 mg",224 µM
same,concentration at 24 h,"750 mg, Patient 027, 750 mg",199 µM
